Measured values reported in patent publication US10710978B2, “STK4 inhibitors for treatment of hematologic malignancies” (Dana-Farber Cancer Institute, Inc., priority 2015, dated 2020).
Several values for one entry are separate records, joined by “and”; a condition that tells them apart may be missing. Identical values can stand only once. Like-named read-outs stand apart in the source and are kept apart here.

Legend:
Assay in all cases: KiNativ assay
Assay type in all cases: binding
NEK3 = NEK3 (Homo sapiens (Human), UniProt P51956); settings: H929 live cell
Procedure: (§1) Biochemical IC50s of the compounds of the present disclosure against various kinases were measured in a KiNativ assay. Compounds were screened in duplicate at 10 μM in H929 live cell. IC50 was measured via Mass spectroscopy (MS).

MPSK1 = MPSK1 (Homo sapiens (Human), UniProt O75716); settings: H929 live cell
Procedure: as §1

PIP5K3 = PIP5K3 (Homo sapiens (Human), UniProt Q9Y2I7); settings: H929 live cell
Procedure: as §1

AMPKa1, AMPKa2 = settings: H929 live cell; for % inhibition (range): 10 μM
Procedure: as §1

PKD2 = PKD2 (Homo sapiens (Human), UniProt Q9BZL6); settings: H929 live cell
Procedure: as §1

IRAK4 = IRAK4 (Homo sapiens (Human), UniProt Q9NWZ3); settings: H929 live cell
Procedure: as §1

PFTAIRE1 = PFTAIRE1 (Homo sapiens (Human), UniProt O94921); settings: H929 live cell
Procedure: as §1

TAO2 = TAO2 (Homo sapiens (Human), UniProt Q9UL54); settings: H929 live cell
Procedure: as §1

TLK1 = TLK1 (Homo sapiens (Human), UniProt Q9UKI8); settings: H929 live cell
Procedure: as §1

TBK1 = TBK1 (Homo sapiens (Human), UniProt Q9UHD2); settings: H929 live cell
Procedure: as §1

MST1 = MST1 (Homo sapiens (Human), UniProt Q13043); settings: H929 live cell
Procedure: as §1

JAK1 domain1 = JAK1 domain1 (Homo sapiens (Human), UniProt P23458); settings: H929 live cell
Procedure: as §1

CSK = CSK (Homo sapiens (Human), UniProt P41240); settings: H929 live cell
Procedure: as §1

[1] = tested on: ZC1/HGK, ZC2/TNIK, ZC3/MINK; settings: H929 live cell; for % inhibition (range): 10 μM
Procedure: as §1

NuaK2 = NuaK2 (Homo sapiens (Human), UniProt Q9H093); settings: H929 live cell
Procedure: as §1

MAP2K1, MAP2K2 = settings: H929 live cell; for % inhibition (range): 10 μM
Procedure: as §1

CDK11, CDK8 = settings: H929 live cell
Procedure: as §1

CaMK1d = CaMK1d (Homo sapiens (Human), UniProt Q8IU85); settings: H929 live cell
Procedure: as §1

TLK2 = TLK2 (Homo sapiens (Human), UniProt Q86UE8); settings: H929 live cell
Procedure: as §1

FYN, SRC, YES = settings: H929 live cell; for % inhibition (range): 10 μM
Procedure: as §1

CaMK2d = CaMK2d (Homo sapiens (Human), UniProt Q13557); settings: H929 live cell
Procedure: as §1

NEK7 = NEK7 (Homo sapiens (Human), UniProt Q8TDX7); settings: H929 live cell
Procedure: as §1

NEK6, NEK7 = settings: H929 live cell; for % inhibition (range): 10 μM
Procedure: as §1

Chain of TLK1 (Q9UKI8 whole entry): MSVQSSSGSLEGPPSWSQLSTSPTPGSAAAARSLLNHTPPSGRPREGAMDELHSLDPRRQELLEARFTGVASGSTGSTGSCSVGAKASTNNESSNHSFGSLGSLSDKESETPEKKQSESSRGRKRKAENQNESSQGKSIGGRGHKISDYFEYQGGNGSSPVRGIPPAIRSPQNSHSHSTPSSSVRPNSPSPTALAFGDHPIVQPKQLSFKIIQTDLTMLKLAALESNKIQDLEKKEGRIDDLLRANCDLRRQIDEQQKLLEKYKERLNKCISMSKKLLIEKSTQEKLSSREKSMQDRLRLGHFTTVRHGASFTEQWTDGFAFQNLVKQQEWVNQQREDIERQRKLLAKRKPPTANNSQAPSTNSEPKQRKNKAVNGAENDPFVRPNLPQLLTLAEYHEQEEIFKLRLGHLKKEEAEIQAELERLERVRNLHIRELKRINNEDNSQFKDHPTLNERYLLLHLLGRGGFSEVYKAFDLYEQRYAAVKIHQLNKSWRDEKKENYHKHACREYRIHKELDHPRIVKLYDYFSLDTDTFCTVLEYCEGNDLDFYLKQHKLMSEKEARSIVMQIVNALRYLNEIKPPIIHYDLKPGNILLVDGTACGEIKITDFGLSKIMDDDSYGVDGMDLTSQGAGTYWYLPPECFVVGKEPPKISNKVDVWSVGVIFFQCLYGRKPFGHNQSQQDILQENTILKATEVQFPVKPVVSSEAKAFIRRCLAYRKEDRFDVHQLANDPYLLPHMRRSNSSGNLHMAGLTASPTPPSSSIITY
Chain of CaMK2d (Q13557 whole entry): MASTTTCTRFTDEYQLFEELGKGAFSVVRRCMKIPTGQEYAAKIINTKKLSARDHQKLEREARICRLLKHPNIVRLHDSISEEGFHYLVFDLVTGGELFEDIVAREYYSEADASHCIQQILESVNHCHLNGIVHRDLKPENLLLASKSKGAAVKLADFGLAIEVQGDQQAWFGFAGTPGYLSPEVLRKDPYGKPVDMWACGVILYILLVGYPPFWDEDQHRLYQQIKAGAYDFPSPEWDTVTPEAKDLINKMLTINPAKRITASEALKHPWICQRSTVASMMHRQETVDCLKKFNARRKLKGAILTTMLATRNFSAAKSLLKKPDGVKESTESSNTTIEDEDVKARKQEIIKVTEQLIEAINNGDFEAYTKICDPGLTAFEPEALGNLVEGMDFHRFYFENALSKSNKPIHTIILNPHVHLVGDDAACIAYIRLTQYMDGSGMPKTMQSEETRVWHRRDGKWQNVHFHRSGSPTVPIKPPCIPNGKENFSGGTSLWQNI
Chain of CSK (P41240 whole entry): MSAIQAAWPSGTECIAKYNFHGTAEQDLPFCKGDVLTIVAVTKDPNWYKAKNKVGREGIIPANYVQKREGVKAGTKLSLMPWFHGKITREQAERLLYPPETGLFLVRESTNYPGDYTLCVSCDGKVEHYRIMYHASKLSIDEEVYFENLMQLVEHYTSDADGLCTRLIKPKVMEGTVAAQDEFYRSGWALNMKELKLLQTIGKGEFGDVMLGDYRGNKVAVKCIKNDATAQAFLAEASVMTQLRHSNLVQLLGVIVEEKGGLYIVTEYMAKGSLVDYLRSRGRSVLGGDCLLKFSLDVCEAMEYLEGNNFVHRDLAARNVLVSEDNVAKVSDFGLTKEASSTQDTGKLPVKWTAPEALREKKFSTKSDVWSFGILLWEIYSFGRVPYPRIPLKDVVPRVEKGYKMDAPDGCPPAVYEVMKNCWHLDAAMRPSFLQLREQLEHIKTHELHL
Chain of TLK2 (Q86UE8 whole entry): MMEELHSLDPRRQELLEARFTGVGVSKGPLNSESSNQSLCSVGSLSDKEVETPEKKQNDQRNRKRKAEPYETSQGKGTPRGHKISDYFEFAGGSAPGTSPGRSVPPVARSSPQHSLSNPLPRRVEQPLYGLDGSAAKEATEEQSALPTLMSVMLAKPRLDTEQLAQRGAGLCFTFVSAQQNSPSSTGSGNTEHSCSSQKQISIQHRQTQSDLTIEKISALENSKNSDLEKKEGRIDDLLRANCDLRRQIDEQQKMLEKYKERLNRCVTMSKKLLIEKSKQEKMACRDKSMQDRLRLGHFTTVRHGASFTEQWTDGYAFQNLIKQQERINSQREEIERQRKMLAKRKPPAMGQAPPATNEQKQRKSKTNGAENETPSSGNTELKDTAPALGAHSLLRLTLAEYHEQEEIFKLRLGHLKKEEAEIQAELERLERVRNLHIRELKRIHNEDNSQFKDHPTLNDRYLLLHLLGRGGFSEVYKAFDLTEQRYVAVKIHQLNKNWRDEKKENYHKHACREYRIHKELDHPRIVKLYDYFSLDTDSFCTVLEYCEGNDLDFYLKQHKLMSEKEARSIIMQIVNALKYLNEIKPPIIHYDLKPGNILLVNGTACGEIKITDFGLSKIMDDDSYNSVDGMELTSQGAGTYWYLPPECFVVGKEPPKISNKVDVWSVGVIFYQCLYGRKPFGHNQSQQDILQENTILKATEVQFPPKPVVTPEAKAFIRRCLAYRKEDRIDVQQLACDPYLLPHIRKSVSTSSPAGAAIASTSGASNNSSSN
Chain of PIP5K3 (Q9Y2I7 whole entry): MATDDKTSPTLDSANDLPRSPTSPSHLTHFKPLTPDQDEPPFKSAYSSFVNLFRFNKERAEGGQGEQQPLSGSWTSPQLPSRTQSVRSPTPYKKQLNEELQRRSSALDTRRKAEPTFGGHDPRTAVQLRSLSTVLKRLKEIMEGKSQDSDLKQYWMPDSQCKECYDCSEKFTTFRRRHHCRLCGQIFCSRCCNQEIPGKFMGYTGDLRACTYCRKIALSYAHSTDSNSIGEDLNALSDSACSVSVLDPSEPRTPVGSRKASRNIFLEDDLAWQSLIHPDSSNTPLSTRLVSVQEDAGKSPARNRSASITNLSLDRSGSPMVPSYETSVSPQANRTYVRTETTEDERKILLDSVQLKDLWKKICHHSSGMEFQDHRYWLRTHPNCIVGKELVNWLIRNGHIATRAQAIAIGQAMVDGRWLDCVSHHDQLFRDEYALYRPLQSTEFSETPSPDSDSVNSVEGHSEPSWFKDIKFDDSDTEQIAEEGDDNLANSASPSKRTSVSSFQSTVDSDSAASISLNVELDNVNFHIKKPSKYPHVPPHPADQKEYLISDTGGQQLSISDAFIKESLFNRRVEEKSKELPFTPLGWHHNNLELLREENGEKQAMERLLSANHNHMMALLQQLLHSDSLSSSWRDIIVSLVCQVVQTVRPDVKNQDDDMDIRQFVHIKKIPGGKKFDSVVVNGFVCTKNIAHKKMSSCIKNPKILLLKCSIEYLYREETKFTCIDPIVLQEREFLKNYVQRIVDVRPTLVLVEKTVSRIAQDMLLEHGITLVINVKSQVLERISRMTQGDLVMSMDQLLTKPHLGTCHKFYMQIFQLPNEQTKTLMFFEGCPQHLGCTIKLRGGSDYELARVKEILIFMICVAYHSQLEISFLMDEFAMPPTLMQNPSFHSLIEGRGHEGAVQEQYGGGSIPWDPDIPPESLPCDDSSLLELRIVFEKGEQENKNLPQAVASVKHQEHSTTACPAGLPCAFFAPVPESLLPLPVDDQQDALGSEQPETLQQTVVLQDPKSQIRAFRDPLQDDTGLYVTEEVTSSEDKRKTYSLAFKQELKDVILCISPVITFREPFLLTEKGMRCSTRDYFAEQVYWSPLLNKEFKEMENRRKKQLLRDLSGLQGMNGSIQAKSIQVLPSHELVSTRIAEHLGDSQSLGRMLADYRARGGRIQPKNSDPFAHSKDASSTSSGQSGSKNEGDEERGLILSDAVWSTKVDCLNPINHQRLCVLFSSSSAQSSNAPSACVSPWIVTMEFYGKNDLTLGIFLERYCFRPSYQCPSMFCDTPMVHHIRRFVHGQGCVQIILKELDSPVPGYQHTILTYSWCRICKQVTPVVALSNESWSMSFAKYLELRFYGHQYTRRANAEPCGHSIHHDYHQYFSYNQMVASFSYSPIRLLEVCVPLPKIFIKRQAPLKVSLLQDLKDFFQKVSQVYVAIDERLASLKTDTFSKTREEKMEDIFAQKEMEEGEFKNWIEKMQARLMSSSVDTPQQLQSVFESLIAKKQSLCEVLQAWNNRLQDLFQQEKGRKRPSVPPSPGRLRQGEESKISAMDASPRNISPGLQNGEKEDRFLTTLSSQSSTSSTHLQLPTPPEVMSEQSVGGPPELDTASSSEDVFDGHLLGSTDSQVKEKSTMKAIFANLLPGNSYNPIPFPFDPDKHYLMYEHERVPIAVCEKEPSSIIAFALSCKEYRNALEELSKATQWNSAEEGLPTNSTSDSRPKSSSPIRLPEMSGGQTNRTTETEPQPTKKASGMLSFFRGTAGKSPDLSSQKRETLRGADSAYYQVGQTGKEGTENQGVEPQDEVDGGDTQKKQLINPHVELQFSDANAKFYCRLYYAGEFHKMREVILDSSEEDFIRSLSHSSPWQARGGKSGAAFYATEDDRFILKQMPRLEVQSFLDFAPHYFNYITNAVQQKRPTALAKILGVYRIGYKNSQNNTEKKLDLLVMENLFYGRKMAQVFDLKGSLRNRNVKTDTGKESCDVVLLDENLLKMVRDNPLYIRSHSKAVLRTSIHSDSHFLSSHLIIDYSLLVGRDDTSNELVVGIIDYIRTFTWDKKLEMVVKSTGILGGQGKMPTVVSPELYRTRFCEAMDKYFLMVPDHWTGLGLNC
Chain of NEK3 (P51956 whole entry): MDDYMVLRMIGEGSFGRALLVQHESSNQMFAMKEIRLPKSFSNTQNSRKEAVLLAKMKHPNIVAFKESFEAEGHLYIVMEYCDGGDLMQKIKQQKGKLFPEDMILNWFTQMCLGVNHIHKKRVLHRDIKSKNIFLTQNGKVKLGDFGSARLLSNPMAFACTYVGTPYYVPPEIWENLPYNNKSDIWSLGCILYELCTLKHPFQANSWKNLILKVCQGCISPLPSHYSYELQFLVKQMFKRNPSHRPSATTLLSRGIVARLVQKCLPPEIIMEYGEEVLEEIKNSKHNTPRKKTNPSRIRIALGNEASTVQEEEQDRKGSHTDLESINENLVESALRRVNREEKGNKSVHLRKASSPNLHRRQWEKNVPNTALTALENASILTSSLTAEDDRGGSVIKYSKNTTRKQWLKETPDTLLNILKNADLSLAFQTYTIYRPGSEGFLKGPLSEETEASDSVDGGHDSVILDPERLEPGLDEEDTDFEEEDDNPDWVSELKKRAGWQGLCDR

Nc1ncc(-c2cccc([N+](=O)[O-])c2F)cc1-c1ccc2c(c1)CCNC2=O [Compound I-9, 6-(2-amino-5-(2-fluoro-3-nitrophenyl)pyridin-3-yl)-3,4-dihydroisoquinolin-1(2H)-one]
inhibition at 10 µM (NEK3; read-out: % inhibition (range)): 0% | inhibition at 10 µM (NEK3; read-out: inhibition (10 μM)): -42.8% | inhibition at 10 µM (MPSK1; read-out: inhibition (10 μM)): 55.2% | inhibition at 10 µM (PIP5K3; read-out: % inhibition (range)): > 90% | inhibition at 10 µM (PIP5K3; read-out: inhibition (10 μM)): 92% | % inhibition (range) (AMPKa1, AMPKa2): 50-75% | inhibition (10 μM) (AMPKa1, AMPKa2): 52.0% | inhibition at 10 µM (PKD2; read-out: % inhibition (range)): 35 to 50% | inhibition at 10 µM (PKD2; read-out: inhibition (10 μM)): 46.2% | inhibition at 10 µM (IRAK4; read-out: % inhibition (range)): 0% | inhibition at 10 µM (IRAK4; read-out: inhibition (10 μM)): -14.1% | inhibition at 10 µM (PFTAIRE1; read-out: % inhibition (range)): 50 to 75% | inhibition at 10 µM (PFTAIRE1; read-out: inhibition (10 μM)): 74.6% | inhibition at 10 µM (TAO2; read-out: % inhibition (range)): 35 to 50% | inhibition at 10 µM (TAO2; read-out: inhibition (10 μM)): 35.3% | inhibition at 10 µM (TLK1; read-out: % inhibition (range)): 0% | inhibition at 10 µM (TLK1; read-out: inhibition (10 μM)): 28.8% | inhibition at 10 µM (TBK1; read-out: % inhibition (range)): 0% | inhibition at 10 µM (TBK1; read-out: inhibition (10 μM)): 23.7% | inhibition at 10 µM (MST1; read-out: % inhibition (range)): > 90% | inhibition at 10 µM (MST1; read-out: inhibition (10 μM)): 95.4% | inhibition at 10 µM (JAK1 domain1; read-out: % inhibition (range)): 0% | inhibition at 10 µM (JAK1 domain1; read-out: inhibition (10 μM)): -44.3% | inhibition at 10 µM (CSK; read-out: % inhibition (range)): 0% | inhibition at 10 µM (CSK; read-out: inhibition (10 μM)): -4.5% | % inhibition (range) [1]: >90% | inhibition (10 μM) [1]: 96.7% | inhibition at 10 µM (NuaK2; read-out: % inhibition (range)): 50 to 75% | inhibition at 10 µM (NuaK2; read-out: inhibition (10 μM)): 58.7% | % inhibition (range) (MAP2K1, MAP2K2): 0.0% | inhibition (10 μM) (CDK11, CDK8): 35.5% | inhibition at 10 µM (CaMK1d; read-out: % inhibition (range)): 0% | inhibition at 10 µM (CaMK1d; read-out: inhibition (10 μM)): -2.8% | inhibition at 10 µM (TLK2; read-out: % inhibition (range)): 0% | inhibition at 10 µM (TLK2; read-out: inhibition (10 μM)): 34% | % inhibition (range) (FYN, SRC, YES): 0.0% | inhibition (10 μM) (FYN, SRC, YES): 28.3% | inhibition at 10 µM (CaMK2d; read-out: % inhibition (range)): 0% | inhibition at 10 µM (CaMK2d; read-out: inhibition (10 μM)): -5.7% | inhibition at 10 µM (NEK7; read-out: % inhibition (range)): 0% | inhibition at 10 µM (NEK7; read-out: inhibition (10 μM)): -39.5% | % inhibition (range) (NEK6, NEK7): 0.0% | inhibition (10 μM) (NEK6, NEK7): −35.7%

CN(C1CC1)S(=O)(=O)c1ccc(-c2cnc(N)c(-c3ccc4c(c3)CCNC4=O)c2)c(F)c1 [Compound I-28, 4-(6-amino-5-(1-oxo-1,2,3,4-tetrahydroisoquinolin-6-yl)pyridin-3-yl)-N-cyclopropyl-3-fluoro-N-methylbenzenesulfonamide]
inhibition at 10 µM (NEK3; read-out: % inhibition (range)): 0% | inhibition at 10 µM (NEK3; read-out: inhibition (10 μM)): -27.2% | inhibition at 10 µM (MPSK1; read-out: % inhibition (range)): 0% | inhibition at 10 µM (MPSK1; read-out: inhibition (10 μM)): -9.1% | inhibition at 10 µM (PIP5K3; read-out: % inhibition (range)): 75 to 90% | inhibition at 10 µM (PIP5K3; read-out: inhibition (10 μM)): 83.4% | % inhibition (range) (AMPKa1, AMPKa2): 0.0% | inhibition (10 μM) (AMPKa1, AMPKa2): −1.6% | inhibition at 10 µM (PKD2; read-out: % inhibition (range)): 35 to 50% | inhibition at 10 µM (PKD2; read-out: inhibition (10 μM)): 38.9% | inhibition at 10 µM (IRAK4; read-out: % inhibition (range)): 0% | inhibition at 10 µM (IRAK4; read-out: inhibition (10 μM)): -0.7% | inhibition at 10 µM (PFTAIRE1; read-out: % inhibition (range)): 0% | inhibition at 10 µM (PFTAIRE1; read-out: inhibition (10 μM)): 22.2% | inhibition at 10 µM (TAO2; read-out: % inhibition (range)): 50 to 75% | inhibition at 10 µM (TAO2; read-out: inhibition (10 μM)): 61.5% | inhibition at 10 µM (TLK1; read-out: % inhibition (range)): 0% | inhibition at 10 µM (TLK1; read-out: inhibition (10 μM)): 1.8% | inhibition at 10 µM (TBK1; read-out: % inhibition (range)): 0% | inhibition at 10 µM (TBK1; read-out: inhibition (10 μM)): 3.4% | inhibition at 10 µM (MST1; read-out: % inhibition (range)): > 90% | inhibition at 10 µM (MST1; read-out: inhibition (10 μM)): 94.5% | inhibition at 10 µM (JAK1 domain1; read-out: % inhibition (range)): 0% | inhibition at 10 µM (JAK1 domain1; read-out: inhibition (10 μM)): -38.6% | inhibition at 10 µM (CSK; read-out: % inhibition (range)): 0% | inhibition at 10 µM (CSK; read-out: inhibition (10 μM)): 3.7% | % inhibition (range) [1]: >90% | inhibition (10 μM) [1]: 94.5% | inhibition at 10 µM (NuaK2; read-out: % inhibition (range)): 0% | inhibition at 10 µM (NuaK2; read-out: inhibition (10 μM)): 11.2% | % inhibition (range) (MAP2K1, MAP2K2): 0.0% | inhibition (10 μM) (MAP2K1, MAP2K2): 0.5% and −0.9% | % inhibition (range) (CDK11, CDK8; 10 μM): 0.0% | inhibition (10 μM) (CDK11, CDK8): 4.9% | inhibition at 10 µM (CaMK1d; read-out: % inhibition (range)): 0% | inhibition at 10 µM (CaMK1d; read-out: inhibition (10 μM)): 15.2% | inhibition at 10 µM (TLK2; read-out: % inhibition (range)): 0% | inhibition at 10 µM (TLK2; read-out: inhibition (10 μM)): 14.2% | % inhibition (range) (FYN, SRC, YES): 0.0% | inhibition (10 μM) (FYN, SRC, YES): 2.2% | inhibition at 10 µM (CaMK2d; read-out: % inhibition (range)): 0% | inhibition at 10 µM (CaMK2d; read-out: inhibition (10 μM)): -31% | inhibition at 10 µM (NEK7; read-out: % inhibition (range)): 0% | inhibition at 10 µM (NEK7; read-out: inhibition (10 μM)): 16% | % inhibition (range) (NEK6, NEK7): 0.0% | inhibition (10 μM) (NEK6, NEK7): −10.5%
